Laboratory results taken from doi:10.1101/2023.08.21.552681v1 (biorxiv, 2023).

target: T1, ctdWDR91 (Homo sapiens, UniProt A4D1P6); experiment: not given; details: at saturation (0-200 uM series), 2 h pre-incubation; covalent
T1 sequence (A4D1P6 392-747): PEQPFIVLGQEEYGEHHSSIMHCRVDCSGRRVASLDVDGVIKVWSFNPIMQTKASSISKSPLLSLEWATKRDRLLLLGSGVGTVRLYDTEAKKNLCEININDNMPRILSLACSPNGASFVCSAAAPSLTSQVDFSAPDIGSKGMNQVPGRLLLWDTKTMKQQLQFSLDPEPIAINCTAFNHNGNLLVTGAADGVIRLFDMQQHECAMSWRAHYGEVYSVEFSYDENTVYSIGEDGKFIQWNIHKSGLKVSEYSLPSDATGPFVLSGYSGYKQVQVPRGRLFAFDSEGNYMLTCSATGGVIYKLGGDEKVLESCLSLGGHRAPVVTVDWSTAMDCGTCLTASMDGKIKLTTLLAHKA

Row | DSF_delta_Tm_ | Structure (SMILES)
1 | 4 °C | C=CC(=O)N1CCCc2c(C(=O)NC3(c4ccc(Cl)cc4)COC3)cccc21 [MRTR046654a]
2 | 4 °C | C=CC(=O)N1CCCc2c(C(=O)NC(c3ccc(Cl)cc3)C3CC3)cccc21 (centres unmarked) [DRTR002365a]

target: T1, ctdWDR91; experiment: biochemical; details: not given

Row | Structure (SMILES) | Kd
3 | O=C(N[C@@H]1CC2(CCC2)Oc2ccc(F)cc21)c1ccc(N2CCC(O)C2)cc1 (some centres unmarked) [DRGG001964a] | > 45 µM
4 | CC1CCN(c2ccc(C(=O)NC3(c4ccc(F)cc4)CC3)cc2)C1 (centres unmarked) [DRGG002016a] | > 45 µM
5 | O=C(NC1(c2ccc(Cl)cc2)COC1)c1ccc(CC2CC2)cc1 [DRGG001970a] | > 45 µM
6 | C=CC(=O)Nc1ccc(CC(=O)NC2(c3ccccc3)COC2)cc1 [MRTR046653a] | > 45 µM
7 | O=C(Nc1cccc2cnccc12)c1ccc(N2CCC(O)C2)cc1 (centres unmarked) [DRGG001979a] | > 45 µM
8 | O=C(NC1(c2ccc(Cl)cc2)COC1)C1CCN(c2ccccc2)C1 (centres unmarked) [DRGG001991a] | > 45 µM
9 | O=C(NOCc1ccc(Cl)cc1)c1ccc(N2CCC(O)C2)cc1 (centres unmarked) [DRGG002010a] | > 45 µM
10 | CC(NC(=O)c1ccc(N2CCC(O)C2)cc1)c1cccc(N2CCCC2)c1 (centres unmarked) [DRGG001998a] | > 45 µM
11 | O=C(NC1(Cc2ccccc2)COC1)c1ccc(N2CCC(O)C2)cc1 (centres unmarked) [DRGG001952a] | > 45 µM
12 | N#CC1(c2ccc(C(=O)NCC3CCN(c4ccc(Cl)cc4)C3)cc2)CC1 (centres unmarked) [DRGG001993a] | > 45 µM
13 | C=CC(=O)N1CCCc2c(C(=O)NC(c3ccc(F)cc3)C3CCCCC3)cccc21 (centres unmarked) [DRTR002366a] | > 45 µM
14 | NC(=O)c1ccc(C2(C(=O)NCC3CCN(c4ccc(Cl)cc4)C3)CC2)cc1 (centres unmarked) [DRGG002017a] | > 45 µM
15 | O=C(NC1CCN(c2ccc(Cl)cc2)C1)c1ccc(CN2CCCC2=O)cc1 (centres unmarked) [DRGG001992a] | > 45 µM
16 | CC1(NC(=O)c2ccc(N3CCC(O)C3)cc2)CCN(C(=O)OC(C)(C)C)C1 (centres unmarked) [DRGG002003a] | > 45 µM
17 | O=C(CNC(=O)c1ccc(O)cc1)NCC1CCN(c2ccc(Cl)cc2)C1 (centres unmarked) [DRGG001951a] | > 45 µM
18 | O=C(N[C@@H]1C[C@H]1c1ccc(Cl)cc1)c1ccc(N2CCC(O)C2)cc1 (some centres unmarked) [DRGG001986a] | > 45 µM

Now from value to compound:

Row | Kd | Structure (SMILES)
19 | 37 µM | Nc1ncnc2cc(C(=O)NC3(c4ccc(Cl)cc4)COC3)ccc12 [DRGG001943a]
20 | > 45 µM | O=C(NC1CCc2cc(Cl)ccc21)c1ccc(N2CCC(O)C2)cc1 (centres unmarked) [DRGG001981a]
21 | > 45 µM | O=C(NCC1CCN(c2ccc(F)cc2)C1)C1(c2ccc(Cl)cc2)CCOCC1 (centres unmarked) [DRGG001995a]
22 | > 45 µM | O=C(NC1(c2ccc(Cl)cc2)COC1)c1ccc(OCC2CC2)cc1 [DRGG001971a]
23 | > 45 µM | CC1CCN(c2ccc(C(=O)NC3(C)Cc4ccccc4C3)cc2)C1 (centres unmarked) [DRGG001937a]
24 | > 45 µM | O=C(NC1CCN(c2ccc(Cl)cc2)C1)c1ccc(C2(O)COC2)cc1 (centres unmarked) [DRGG001966a]
25 | > 45 µM | O=C1CCC(c2ccc(C(=O)NC3CCN(c4ccc(Cl)cc4)C3)cc2)N1 (centres unmarked) [DRGG001984a]
26 | > 45 µM | O=C(NC1CCN(c2ccc(Cl)cc2)C1)c1ccc2c(c1)CC2 (centres unmarked) [DRGG001973a]
27 | > 45 µM | CC1CCN(c2ccc(C(=O)NC3(Cc4cccc(F)c4)CC3)cc2)C1 (centres unmarked) [DRGG002009a]
28 | > 45 µM | O=C(NCCOc1ccc(Cl)cc1)c1ccc(N2CCC(O)C2)cc1 (centres unmarked) [DRGG002013a]
29 | > 45 µM | Cc1nc2sccn2c1C(=O)NC1(c2ccc(Cl)cc2)COC1 [DRGG001989a]
30 | > 45 µM | O=C(NCC1CCN(c2ccc(Cl)cc2)C1)c1ccc(C(=O)NC2CC2)cc1 (centres unmarked) [DRGG001936a]
31 | > 45 µM | O=C1Cc2c(cccc2C(=O)NC2(c3ccc(Cl)cc3)COC2)N1 [DRGG001947a]
32 | > 45 µM | O=C(NCC1CCN(c2ccc(Cl)cc2)C1)c1ccc(CN2CCOCC2)cc1 (centres unmarked) [DRGG001983a]
33 | > 45 µM | O=C(CNC(=O)c1ccc(N2CCC(O)C2)cc1)OCc1ccc(Cl)cc1 (centres unmarked) [DRGG002006a]
34 | > 45 µM | O=C(NC1CCN(c2ccc(Cl)cc2)C1)c1ccc(N2CCC(O)C2)cc1 (centres unmarked) [DRGG001963a]
35 | > 45 µM | O=C(NC1(c2ccc(Cl)cc2)COC1)c1ccc2c(c1)NC(=O)C1CCCN21 (centres unmarked) [DRGG002018a]
36 | > 45 µM | O=C(NCCc1ccc(Cl)cc1)c1ccc(N2CCC(O)C2)cc1 (centres unmarked) [DRGG001935a]
37 | 14 µM | O=C(NC(CCO)c1ccc(Cl)cc1)c1ccc(N2CCC(O)C2)cc1 (centres unmarked) [DRGG001961a]
38 | 16 µM | NC(=O)C1CCCN(c2ccc(C(=O)NC(c3ccc(Cl)cc3)C3CC3)cc2)C1 (centres unmarked) [DRGG001957a]
